Data from ChEMBL document CHEMBL3526076, “Species-dependent and receptor-selective action of bilobalide on the function of constitutive androstane receptor and pregnane X receptor” (Drug Metab Dispos, 2012).

Tests used:
[1] = target: T1, Nuclear receptor subfamily 1 group I member 3 (Rattus norvegicus, UniProt Q9QUS1); test: Activation of CAR in rat hepatocytes assessed as increase in CYP2B-mediated benzyloxyresorufin O-dealkylation at 3 uM after 24 hrs by spectrofluorometric analysis relative to phenobarbital; type: ADME, cell-based, Hepatocyte
T1 sequence (Q9QUS1 whole entry): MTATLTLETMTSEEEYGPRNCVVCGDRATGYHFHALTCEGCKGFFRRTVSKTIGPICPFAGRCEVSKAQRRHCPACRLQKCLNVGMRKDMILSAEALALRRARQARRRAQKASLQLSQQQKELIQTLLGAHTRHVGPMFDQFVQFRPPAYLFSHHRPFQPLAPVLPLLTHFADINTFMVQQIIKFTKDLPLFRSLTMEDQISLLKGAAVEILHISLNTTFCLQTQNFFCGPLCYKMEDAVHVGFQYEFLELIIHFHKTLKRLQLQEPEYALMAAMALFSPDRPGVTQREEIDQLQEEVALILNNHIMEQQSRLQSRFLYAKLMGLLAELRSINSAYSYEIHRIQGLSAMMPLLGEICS

[2] = target: T2, Nuclear receptor subfamily 1 group I member 2 (Rattus norvegicus, UniProt Q9R1A7); test: Activation of PXR in rat hepatocytes assessed as upregulation of CYP3A23 mRNA expression at 1 to 30 uM after 24 hrs by RT-PCR analysis; type: ADME, cell-based, Hepatocyte
T2 sequence (Q9R1A7 whole entry): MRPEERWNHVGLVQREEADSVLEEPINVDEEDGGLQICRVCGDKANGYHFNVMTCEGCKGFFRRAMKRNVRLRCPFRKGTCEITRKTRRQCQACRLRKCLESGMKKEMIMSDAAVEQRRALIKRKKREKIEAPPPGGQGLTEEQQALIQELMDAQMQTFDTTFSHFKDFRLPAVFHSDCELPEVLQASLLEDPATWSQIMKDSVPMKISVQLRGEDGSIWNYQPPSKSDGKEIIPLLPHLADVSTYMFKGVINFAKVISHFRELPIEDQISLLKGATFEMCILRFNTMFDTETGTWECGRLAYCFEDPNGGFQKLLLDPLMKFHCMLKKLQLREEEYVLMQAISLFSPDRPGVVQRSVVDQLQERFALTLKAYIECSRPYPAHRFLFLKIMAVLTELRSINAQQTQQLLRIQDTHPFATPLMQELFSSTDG

[3] = target: T3, Nuclear receptor subfamily 1 group I member 3 (Homo sapiens, UniProt Q14994); test: Activation of CAR in human Hu1043 hepatocytes assessed as effect on CYP2B6 mRNA expression at 10 to 60 uM after 24 hrs by RT-PCR analysis; type: ADME, cell-based, Hepatocyte
T3 sequence (Q14994 whole entry): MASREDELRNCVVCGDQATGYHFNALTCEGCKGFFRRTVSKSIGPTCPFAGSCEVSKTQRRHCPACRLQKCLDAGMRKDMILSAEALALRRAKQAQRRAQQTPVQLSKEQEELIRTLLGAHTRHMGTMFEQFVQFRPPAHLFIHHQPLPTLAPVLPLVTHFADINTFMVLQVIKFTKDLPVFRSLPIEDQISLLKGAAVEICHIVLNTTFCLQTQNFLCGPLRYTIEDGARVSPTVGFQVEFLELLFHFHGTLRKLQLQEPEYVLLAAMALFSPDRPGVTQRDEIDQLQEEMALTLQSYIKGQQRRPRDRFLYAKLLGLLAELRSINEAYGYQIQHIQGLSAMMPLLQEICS

[4] = target: T3, Nuclear receptor subfamily 1 group I member 3; test: Activation of CAR in human Hu1043 hepatocytes assessed as increase in CYP2B6-mediated bupropion hydroxylation at 10 to 60 uM after 24 hrs by LC-MS analysis; type: ADME, cell-based, Hepatocyte
[5] = target: T1, Nuclear receptor subfamily 1 group I member 3; test: Activation of rat CAR expressed in rat hepatocytes coexpressing CYP2B1 at 100 uM after 24 hrs by dual luciferase reporter gene assay relative to control; type: ADME, cell-based, Hepatocyte; conditions: hepatocytes, 24 h, 100 µM
[6] = target: T1, Nuclear receptor subfamily 1 group I member 3; test: Activation of rat CAR expressed in rat hepatocytes coexpressing CYP2B1 at 100 uM after 24 hrs by dual luciferase reporter gene assay relative to phenobarbital; type: ADME, cell-based, Hepatocyte
CAR mRNA [7] = test: Effect on CAR mRNA expression in human hepatocytes at 50 uM by RT-PCR analysis relative to control; type: ADME, cell-based, Hepatocyte; conditions: read-out: FC
CAR mRNA [8] = test: Effect on CAR mRNA expression in rat hepatocytes at 10 uM by RT-PCR analysis relative to control; type: ADME, cell-based, Hepatocyte; conditions: read-out: FC
[9] = target: T4, Nuclear receptor subfamily 1 group I member 2 (Homo sapiens, UniProt O75469); test: Activation of human PXR expressed in human HepG2 cells coexpressing CYP3A4 at 0.1 to 100 uM after 24 hrs by dual luciferase reporter gene assay; type: ADME, cell-based; conditions: hepg2, 24 h
T4 sequence (O75469 whole entry): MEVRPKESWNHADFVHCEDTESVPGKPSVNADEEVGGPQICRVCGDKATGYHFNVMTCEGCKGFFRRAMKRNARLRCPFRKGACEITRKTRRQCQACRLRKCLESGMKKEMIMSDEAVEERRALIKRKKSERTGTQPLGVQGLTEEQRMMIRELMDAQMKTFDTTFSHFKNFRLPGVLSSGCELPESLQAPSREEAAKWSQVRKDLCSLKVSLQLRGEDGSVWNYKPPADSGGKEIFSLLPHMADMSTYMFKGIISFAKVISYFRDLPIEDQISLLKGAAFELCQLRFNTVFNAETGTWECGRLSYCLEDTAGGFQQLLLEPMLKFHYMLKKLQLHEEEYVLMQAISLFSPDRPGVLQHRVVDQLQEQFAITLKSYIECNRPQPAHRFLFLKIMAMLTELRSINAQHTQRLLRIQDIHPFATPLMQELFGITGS

[10] = target: T4, Nuclear receptor subfamily 1 group I member 2; test: Activation of PXR in human Hu1043 hepatocytes assessed as effect on CYP3A4 mRNA expression at 10 to 60 uM after 24 hrs by RT-PCR analysis; type: ADME, cell-based, Hepatocyte
[11] = target: T3, Nuclear receptor subfamily 1 group I member 3; test: Antagonist activity at human CAR expressed in human HepG2 cells coexpressing CYP2B6 assessed as inhibition of CITCO-induced receptor activation up to 100 uM after 24 hrs by dual luciferase reporter gene assay; type: ADME, cell-based; conditions: hepg2, 24 h
HepG2 = test: Cytotoxicity against human HepG2 cells at 1 to 100 uM after 24 hrs by lactate dehydrogenase assay; type: cell-based; conditions: hepg2, 24 h
PXR mRNA [12] = test: Effect on PXR mRNA expression in human hepatocytes at 10 uM by RT-PCR analysis relative to control; type: ADME, cell-based, Hepatocyte; conditions: read-out: FC
[13] = target: T4, Nuclear receptor subfamily 1 group I member 2; test: Activation of PXR in human Hu1043 hepatocytes assessed as effect on CYP3A-mediated testosterone 6beta-hydroxylation at 10 to 60 uM after 24 hrs by HPLC analysis; type: ADME, cell-based, Hepatocyte
[14] = target: T3, Nuclear receptor subfamily 1 group I member 3; test: Activation of human CAR expressed in rat hepatocytes coexpressing CYP2B1 at 100 uM after 24 hrs by dual luciferase reporter gene assay; type: ADME, cell-based, Hepatocyte
[15] = target: T1, Nuclear receptor subfamily 1 group I member 3; test: Activation of CAR in rat hepatocytes assessed as increase in CYP2B-mediated benzyloxyresorufin O-dealkylation at 30 uM after 24 hrs by spectrofluorometric analysis relative to phenobarbital; type: ADME, cell-based, Hepatocyte
PXR mRNA [16] = test: Effect on PXR mRNA expression in human hepatocytes at 25 uM by RT-PCR analysis relative to control; type: ADME, cell-based, Hepatocyte; conditions: read-out: FC
[17] = target: T4, Nuclear receptor subfamily 1 group I member 2; test: Activation of PXR in human Hu1108 hepatocytes assessed as effect on CYP3A-mediated testosterone 6beta-hydroxylation at 10 to 50 uM after 24 hrs by HPLC analysis; type: ADME, cell-based, Hepatocyte

CC(C)(C)[C@]1(O)C[C@@H]2OC(=O)C[C@@]23C(=O)O[C@@H]2OC(=O)[C@H](O)[C@]213
Activity [1]: 44%
Activity [2]: Not Active
Activity [3]: Not Active
Activity [4]: Not Active
Activity [5]: Active
Activity [6]: 115%
fold induction at 50 µM (CAR mRNA [7]): 1.4
fold induction at 10 µM (CAR mRNA [8]): 1.1
Activity [9]: Not Active
Activity [10]: Not Active
inhibition (INH) [11]: Not Active
Activity (HepG2): Non-toxic
fold induction at 10 µM (PXR mRNA [12]): 0.7
Activity [13]: Not Active
Activity [14]: Not Active
Activity [15]: 83%
fold induction at 25 µM (PXR mRNA [16]): 1.2
Activity [17]: Not Active
